In PubChem BioAssay AID2202554 (NIEHS Division of Translational Toxicology (DTT)) one finds outcome data, which are given here for 112 compounds.

The series relates to S. typhimurium/E. coli reverse mutation, colony counts. Briefly: Bacterial reverse mutation test (aka Ames test) summary data. In outline:
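Revertant colony counts on plates, compared with untreated controls, after about two days of growth. Exposure with or without liver S9 (rat/hamster/mouse), dose range per strain, 20-min 37° C preincubation or direct plate incorporation. Strains: his⁻ Salmonella, trp⁻ E. coli WP2 uvrA pKM101.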

Results filed as inconclusive are left out. Activity calls are given as the source filed them. No rule for the calls is given here.

In the case of `Nc1ccc(Cl)c(N)c1`, the outcome was “active; positive”.

`O=C(/C=C/C=C/c1ccc2c(c1)OCO2)N1CCCCC1`: the outcome is “inactive; negative”.

With `CC(C)(C#N)C(C)(C)C#N`, the outcome was “inactive; negative”.

As to `Nc1c(S(=O)(=O)O)cc(Nc2cccc(S(=O)(=O)CCOS(=O)(=O)O)c2)c2c1C(=O)c1ccccc1C2=O`, the outcome was “active; positive”.

Take `Nc1cccc(S(=O)(=O)O)c1`: the outcome was “inactive; negative”.

As to `Brc1ccc(Oc2ccc(Br)cc2Br)c(Br)c1`, the outcome is “inactive; negative”.

Take `CCCCC/C=C\C/C=C\CCCCCCCC(=O)O`: the outcome was “inactive; negative”.

As to `CCN(CC)C(=S)S[Te](SC(=S)N(CC)CC)(SC(=S)N(CC)CC)SC(=S)N(CC)CC`, the outcome was “inactive; negative”.

In the case of `NC(=O)c1ccccc1C(N)=O`, the outcome was “inactive; negative”.

On to `OCC(Br)=C(Br)CO`, for which the outcome was “active; positive”.

Take `O=Cc1c(Cl)cccc1Cl`: the outcome was “inactive; negative”.

In the case of `O=c1[nH]c(=O)[nH]c(=O)[nH]1`, the outcome is “inactive; negative”.

In the case of `Cc1ccccc1N`, the outcome is “active; positive”.

On to `Cc1ccc(C(=O)O)cc1[N+](=O)[O-]`, for which the outcome is “active; positive”.

On to `O=C(O)c1ccc(S(=O)(=O)N(Cl)Cl)cc1`, for which the outcome was “active; positive”.

In the case of `CCN(CC)CCN1C(=O)CN=C(c2ccccc2F)c2cc(Cl)ccc21`, the outcome is “inactive; negative”.

In the case of `CC(=O)c1ccccn1`, the outcome was “inactive; negative”.

On to `O=[N+]([O-])c1ccc(F)c([N+](=O)[O-])c1`, for which the outcome was “active; positive”.

For `ON=C1CCCCC1`, the outcome is “active; positive”.

On to `O=C(O)C(=O)O`, for which the outcome is “inactive; negative”.

As to `Nc1cc(C(=O)O)c(O)c(S(=O)(=O)O)c1`, the outcome is “inactive; negative”.

On to `CCNCC`, for which the outcome is “inactive; negative”.

Turning to `CC(C)COC(=O)c1ccccc1N`, the outcome is “inactive; negative”.

Turning to `CCOC(C)(C)C`, the outcome is “inactive; negative”.

Regarding `c1ccc(COCc2ccccc2)cc1`, the outcome was “inactive; negative”.

Turning to `CCCC[n+]1ccccc1`, the outcome was “inactive; negative”.

As to `CCCC[N+](=O)[O-]`, the outcome is “inactive; negative”.

Regarding `N#CCBr`, the outcome is “inactive; negative”.

Turning to `C=C(C)[C@H]1CC=C(C)CC1`, the outcome is “inactive; negative”.

On to `CCOc1ccc(NC(C)=O)cc1[N+](=O)[O-]`, for which the outcome was “active; positive”.

Take `Nc1ccc(-c2ccc(N)cc2)cc1`: the outcome was “active; positive”.

For the compound `COc1ccc(Cc2nccc3cc(OC)c(OC)cc23)cc1OC`, the outcome is “inactive; negative”.

`ClCCOCCCl`: the outcome is “active; weakly positive”.

Take `CN(CCO)CCO`: the outcome is “inactive; negative”.

With `C=Cc1ccccc1`, the outcome is “inactive; negative”.

With `CCC1NC(=O)c2cc(S(N)(=O)=O)c(Cl)cc2N1` (configuration not stated), the outcome was “inactive; negative”.

Regarding `NC(=O)CCCCC(N)=O`, the outcome was “inactive; negative”.

For the compound `Cc1cccc(C(=O)O)c1[N+](=O)[O-]`, the outcome is “active; positive”.

Turning to `CCN(CC)c1ccc([N+](=O)[O-])cc1`, the outcome was “active; positive”.

As for `Cc1ccccc1O`, the outcome is “inactive; negative”.

On to `CC(C)=CCCC(C)CCO` (configuration not stated), for which the outcome is “inactive; negative”.

Regarding `O.O.O.O.O.O.O=[N+]([O-])[O-].O=[N+]([O-])[O-].O=[N+]([O-])[O-].[La+3]`, the outcome was “inactive; negative”.

Turning to `Oc1ccc(O)cc1`, the outcome was “inactive; negative”.

With `CCCCN(CCO)CCCC`, the outcome is “inactive; negative”.

Consider `C1CCCC1`, for which the outcome was “inactive; negative”.

Take `N=C1N=C(N)c2ccccc21`: the outcome is “active; positive”.

For the compound `C[C@]12C=CC(=O)C=C1CC[C@@H]1[C@@H]2C(=O)C[C@@]2(C)[C@H]1CC[C@]2(O)C(=O)CO`, the outcome was “active; positive”.

On to `CCCCC(CC)COC(=O)CCCCC(=O)O` (configuration not stated), for which the outcome is “inactive; negative”.

`CCC(CO)[N+](=O)[O-]` (configuration not stated): the outcome is “inactive; negative”.

As to `[Cl-].[Cl-].[Sn+2]`, the outcome was “inactive; negative”.

Consider `O=S(=O)(O)c1ccccc1`, for which the outcome was “inactive; negative”.

Consider `O=[N+]([O-])c1cccc2c([N+](=O)[O-])cccc12`, for which the outcome was “active; positive”.

In the case of `C=C(Cl)C(=O)OC`, the outcome was “active; positive”.

Take `O=C1[O][Bi][O]c2ccccc21`: the outcome is “inactive; negative”.

For `N#CCCC#N`, the outcome was “inactive; negative”.

For the compound `CNCCS(=O)(=O)O`, the outcome is “inactive; negative”.

As to `CC(=O)c1c(=O)cc(C)oc1=O`, the outcome was “inactive; negative”.

As to `CCc1ccccc1`, the outcome was “inactive; negative”.

Take `CCOC(C=C(C)CCC=C(C)C)OCC`: the outcome was “active; positive”.

With `O=C1CSC(=S)N1`, the outcome was “inactive; negative”.

Take `C1=CCCC=CCC1.C1=CCCC=CCC1.[Ni]`: the outcome was “active; positive”.

`IC(I)I`: the outcome is “active; positive”.

Regarding `CCCCCC[C@@H](O)C/C=C\CCCCCCCC(=O)O`, the outcome was “inactive; negative”.

For `O=C(O)CCC(=O)OC[C@@H](NC(=O)C(Cl)Cl)[C@H](O)c1ccc([N+](=O)[O-])cc1`, the outcome is “inactive; negative”.

With `CC(=O)C=Cc1ccc2c(c1)OCO2`, the outcome was “inactive; negative”.

On to `O=c1n(CC2CO2)c(=O)n(CC2CO2)c(=O)n1CC1CO1` (configuration not stated), for which the outcome was “active; positive”.

`CCCCCCCCCCCCCC(=O)N[N+](C)(C)CC(C)[O-]` (configuration not stated): the outcome is “inactive; negative”.

With `CC(C)(c1ccc(OCC2CO2)cc1)c1ccc(OCC2CO2)cc1` (configuration not stated), the outcome is “active; positive”.

As to `C=C(C)c1ccccc1`, the outcome is “inactive; negative”.

`O=[N+]([O-])c1cc(C(F)(F)F)cc([N+](=O)[O-])c1Cl`: the outcome is “inactive; negative”.

For the compound `CC(C)(C)OC=O`, the outcome is “inactive; negative”.

As for `CC(O)c1ccccc1` (configuration not stated), the outcome is “inactive; negative”.

With `Nc1ccc(O)c([N+](=O)[O-])c1`, the outcome was “active; positive”.

Turning to `CC(COC(=O)c1ccccc1)(COC(=O)c1ccccc1)COC(=O)c1ccccc1`, the outcome is “inactive; negative”.

As for `O=C(O)/C=C\C(=O)O`, the outcome is “inactive; negative”.

With `O=S(O)c1ccc(Cl)cc1`, the outcome is “inactive; negative”.

As to `CC(=O)C(C)=O`, the outcome is “active; positive”.

With `CCc1cccc(C)c1N`, the outcome was “inactive; negative”.

As for `O=c1ccc(=O)[nH][nH]1`, the outcome was “inactive; negative”.

On to `CCC(C)(C)c1ccc(O)cc1`, for which the outcome was “inactive; negative”.

With `ClCCl`, the outcome was “active; positive”.

For the compound `CC1CCC(CO)CC1` (configuration not stated), the outcome was “inactive; negative”.

On to `Cc1ccnc2c1NC(=O)c1cccnc1N2C1CC1`, for which the outcome is “inactive; negative”.

For the compound `CNc1ccc2nc3ccc(=[N+](C)C)cc-3sc2c1`, the outcome is “active; positive”.

For `Nc1ccn([C@H]2CC[C@@H](CO)O2)c(=O)n1`, the outcome is “active; weakly positive”.

As to `COCC1CCC(CO)CC1` (configuration not stated), the outcome was “inactive; negative”.

For the compound `C=CC(C)C#N` (configuration not stated), the outcome is “active; weakly positive”.

`BrCC1CO1` (configuration not stated): the outcome was “active; positive”.

As to `CCN(CC)N=O`, the outcome is “active; positive”.

On to `CCCC(O)C(CC)CO` (configuration not stated), for which the outcome is “inactive; negative”.

In the case of `CC(Cl)CCl` (configuration not stated), the outcome was “active; weakly positive”.

Take `CCOc1cc(C=O)ccc1O`: the outcome was “inactive; negative”.

`O=C(O)CC(O)(CC(=O)OO)C(=O)O` (configuration not stated): the outcome was “inactive; negative”.

Take `C=CCN=C=S`: the outcome is “active; weakly positive”.

Regarding `CCCCCCCCCCCCCCCCCC(=O)O`, the outcome is “inactive; negative”.

For `Oc1cc(Cl)c(Cl)cc1Cl`, the outcome was “inactive; negative”.

`c1ccc2c(c1)c1cccc3ccc4cccc2c4c31`: the outcome is “active; positive”.

As for `C=C(C)C1CC=C(C)C(O)C1` (configuration not stated), the outcome was “inactive; negative”.

In the case of `CCn1c2ccccc2c2cc(N)ccc21`, the outcome was “active; positive”.

Take `CC1CCC(C(C)CS)CC1S` (configuration not stated): the outcome is “inactive; negative”.

Regarding `Cc1ccc(N)cc1N`, the outcome is “active; positive”.

As to `Cc1c(O)cccc1O`, the outcome was “inactive; negative”.

For `CN(C)C(=O)Nc1cccc(C(F)(F)F)c1`, the outcome was “inactive; negative”.

As to `OCc1ccco1`, the outcome is “inactive; negative”.

With `CC(C)[C@@H]1CC[C@@H](C)C[C@H]1O`, the outcome is “inactive; negative”.

With `C[C@H]1CCCC(=O)CCC/C=C/c2cc(O)cc(O)c2C(=O)O1`, the outcome was “inactive; negative”.

Consider `[O-][n+]1ccccc1SSc1cccc[n+]1[O-]`, for which the outcome was “inactive; negative”.

Turning to `COC(=O)[C@H]1[C@H]2C[C@@H]3c4[nH]c5cc(OC)ccc5c4CCN3C[C@H]2C[C@@H](OC(=O)/C=C/c2cc(OC)c(OC)c(OC)c2)[C@@H]1OC`, the outcome was “inactive; negative”.

With `CC(=O)Nc1ccccc1`, the outcome is “inactive; negative”.

For `O=C1OC2(c3ccccc31)c1cc(Br)c(O)c(Br)c1Oc1c2cc(Br)c(O)c1Br`, the outcome was “active; positive”.

As for `COc1cc(OC)c(OC)cc1C=O`, the outcome was “inactive; negative”.

Take `COc1ccc(C(c2ccc(OC)cc2)C(Cl)(Cl)Cl)cc1`: the outcome is “inactive; negative”.
